In ChEMBL document CHEMBL1122106, “Quantitative structure-activity relationship by distance geometry: quinazolines as dihydrofolate reductase inhibitors” (J Med Chem, 1982):

These compounds were tested on Dihydrofolate reductase (Enterococcus faecium).

Structure (SMILES) | -Delta G [kcal/mol]
Nc1nc(N)c2c(Cl)c(CNc3ccc(C(=O)O)cc3)ccc2n1 | 12.3
Nc1nc(N)c2cc([S+]([O-])c3ccc4ccccc4c3)ccc2n1 (stereo not drawn) | 12.8
Cc1c(CNc2ccc(C(=O)NC(CC(=O)O)C(=O)O)cc2)ccc2nc(N)nc(N)c12 (stereo not drawn) | 12.7
CCCCOC(=O)c1ccc(NCc2ccc3nc(N)nc(N)c3c2)cc1 | 11.2
CCOC(=O)c1ccc(CNc2ccc3nc(N)nc(O)c3c2)cc1 | 8.6
CCOC(=O)c1ccc(CNc2ccc3nc(N)nc(N)c3c2)cc1 | 11
CCCCOC(=O)c1ccc(NCc2ccc3nc(N)nc(N)c3c2Cl)cc1 | 11.4
Cc1c(CNc2ccc(C(=O)O)cc2)ccc2nc(N)nc(N)c12 | 11.8
Nc1nc(N)c2c([S+]([O-])c3ccc(Cl)c(Cl)c3)cccc2n1 (stereo not drawn) | 7.3
CCCCOC(=O)c1ccc(NCc2ccc3nc(N)nc(N)c3c2C)cc1 | 12.1
Nc1nc(O)c2cc(NCc3ccc(C(=O)O)cc3)ccc2n1 | 7.2
Nc1nc(N)c2c([S+]([O-])c3ccc4ccccc4c3)cccc2n1 (stereo not drawn) | 6.9
Nc1nc(O)c2cc(CNc3ccc(C(=O)O)cc3)ccc2n1 | 8.8
Nc1nc(N)c2c(S(=O)(=O)c3ccc4ccccc4c3)cccc2n1 | 6.5
CCOC(=O)c1ccc(CNc2ccc3nc(N)nc(O)c3c2C)cc1 | 7.1
Nc1nc(N)c2cc(Sc3ccc(Cl)c(Cl)c3)ccc2n1 | 12.2
Nc1nc(N)c2cc(Sc3cccc(C(F)(F)F)c3)ccc2n1 | 13.4
Nc1nc(N)c2cc(CNc3ccc(C(=O)O)cc3)ccc2n1 | 13

Structure (SMILES) | -Delta G [kcal/mol]
CCOC(=O)c1ccc(NCc2ccc3nc(N)nc(N)c3c2C)cc1 | 12.3
Nc1nc(O)c2cc(Sc3ccc(Cl)c(Cl)c3)ccc2n1 | 9.1
Nc1nc(O)c2cc(S(=O)(=O)c3ccc(Cl)c(Cl)c3)ccc2n1 | 8.2
CCOC(=O)c1ccc(CNc2ccc3nc(N)nc(N)c3c2Cl)cc1 | 12.2
Nc1nc(N)c2c(CSc3ccc(Cl)cc3)cccc2n1 | 10.9
Nc1nc(N)c2c(S(=O)(=O)c3ccc(Cl)c(Cl)c3)cccc2n1 | 9
CCOC(=O)c1ccc(NCc2ccc3nc(N)nc(N)c3c2)cc1 | 11.4
CCOC(=O)c1ccc(CNc2ccc3nc(N)nc(O)c3c2Cl)cc1 | 9.3
Cc1c(NCc2ccc(C(=O)O)cc2)ccc2nc(N)nc(O)c12 | 6.5
Nc1nc(N)c2c(Sc3ccc(Cl)c(Cl)c3)cccc2n1 | 9.9
Nc1nc(N)c2cc(S(=O)(=O)c3ccc(Cl)c(Cl)c3)ccc2n1 | 13.4
Nc1nc(N)c2c(CCc3ccc4ccccc4c3)cccc2n1 | 11.9
CCOC(=O)c1ccc(CNc2ccc3nc(N)nc(N)c3c2C)cc1 | 13.1
CCOC(=O)c1ccc(NCc2ccc3nc(N)nc(N)c3c2Cl)cc1 | 12.8
Nc1nc(O)c2c(S(=O)(=O)c3ccc4ccccc4c3)cccc2n1 | 9
Nc1nc(N)c2c(/C=C/c3ccc4ccccc4c3)cccc2n1 | 10.7
CCOC(=O)c1ccc(NCc2ccc3nc(N)nc(O)c3c2)cc1 | 10.6
Nc1nc(N)c2c(/C=C\c3ccc4ccccc4c3)cccc2n1 | 11.1

The next lines start with the values.

-Delta G [kcal/mol] | Structure (SMILES)
6.5 | Nc1ncnc2ccc(Sc3ccc4ccccc4c3)cc12
10.2 | Nc1nc(O)c2cc(Sc3ccc4ccccc4c3)ccc2n1
7.4 | Nc1nc(S)nc2ccc(Sc3ccc4ccccc4c3)cc12
10.9 | Nc1nc(N)c2c(Sc3ccc4ccccc4c3)cccc2n1
9.3 | Nc1nc(S)c2cc(Sc3ccc4ccccc4c3)ccc2n1
8 | Nc1nc(S)c2cc(S(=O)(=O)c3ccc4ccccc4c3)ccc2n1
7.4 | Nc1nc(O)c2c(Sc3ccc4ccccc4c3)cccc2n1
6 | Sc1nc(S)c2cc(Sc3ccc4ccccc4c3)ccc2n1
8.2 | Nc1nc(O)c2cc([S+]([O-])c3ccc4ccccc4c3)ccc2n1 (stereo not drawn)
6.9 | Nc1nc(O)nc2ccc(Sc3ccc4ccccc4c3)cc12
6.2 | Oc1nc(S)nc2ccc(Sc3ccc4ccccc4c3)cc12
6.8 | O=c1[nH]c(=S)c2cc(Sc3ccc4ccccc4c3)ccc2[nH]1
7.2 | Nc1ncnc2ccc([S+]([O-])c3ccc4ccccc4c3)cc12 (stereo not drawn)
6.9 | O=c1[nH]c(=O)c2cc(Sc3ccc4ccccc4c3)ccc2[nH]1
12.4 | Nc1nc(N)c2cc(S(=O)(=O)c3ccc4ccccc4c3)ccc2n1
9.6 | Nc1nc(O)c2cc(S(=O)(=O)c3ccc4ccccc4c3)ccc2n1
5.8 | Nc1ncnc2ccc(S(=O)(=O)c3ccc4ccccc4c3)cc12
